Data on four compounds can be found in ChEMBL document CHEMBL5726799, “IRAK4 inhibiting agents” (2019).

For the test, the target named is T1, Interleukin-1 receptor-associated kinase 4 (Homo sapiens, UniProt Q9NWZ3).
T1 sequence (Q9NWZ3 whole entry): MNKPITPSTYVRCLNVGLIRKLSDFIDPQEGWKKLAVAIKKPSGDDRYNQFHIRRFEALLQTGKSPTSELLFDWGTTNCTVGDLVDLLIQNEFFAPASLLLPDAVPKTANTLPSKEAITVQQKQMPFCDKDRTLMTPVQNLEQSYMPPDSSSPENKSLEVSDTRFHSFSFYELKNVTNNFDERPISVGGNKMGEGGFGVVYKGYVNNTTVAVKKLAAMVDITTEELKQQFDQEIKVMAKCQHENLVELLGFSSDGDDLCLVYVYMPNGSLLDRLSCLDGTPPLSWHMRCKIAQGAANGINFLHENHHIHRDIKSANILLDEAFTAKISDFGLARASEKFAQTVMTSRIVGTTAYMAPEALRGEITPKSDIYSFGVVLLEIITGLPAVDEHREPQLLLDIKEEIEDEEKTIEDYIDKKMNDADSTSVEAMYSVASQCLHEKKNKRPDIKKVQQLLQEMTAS
In words: Biochemical Assay: The biochemical assay is in a AlphaScreen format. The kinase reaction is based on the IRAK-4 phosphorylation of a biotin labeled peptide. The phosphopeptide is incubated with anti-phosphothreonine antibody as well as streptavidin- and protein A-coated beads. Binding of the protein-A coated beads to the antibody and the streptavidin beads to the peptide, leads to an energy transfer from one bead to the other, ultimately producing a luminescent/fluorescent signal.Generally, the kinase reaction is carried out at 1 nM IRAK4, 1.6 μM peptide, 1 mM ATP in reaction buffer 50 mM Hepes, 60 mM NaCl, 5 mM MgCl2, 0.25 mM MnCl2, 2 mM DTT, 0.01% BSA, 0.01% Tween-20) for 3.5 h at RT. In general terms: In Alpha technology, singlet oxygen from a donor bead excites a nearby acceptor bead.
Usually IC50 stands for the concentration that gives 50% inhibition. With `N#CCNC(=O)c1cc(N)cc(-c2ccc3cnn(-c4cccc(C(F)(F)F)n4)c3c2)c1`, the IC50 was < 100 nM. `CCC[C@H](N)c1cccc(-c2cc(N3CCC3)c3cnn(-c4cccc(CO)n4)c3c2)n1`: the IC50 was < 100 nM. Take `CCc1cccc(-c2cc(-c3nnc(C)o3)c3cnn(-c4cccc(CO)n4)c3c2)n1`: the IC50 was < 100 nM. The figure for `CCC[C@H](N)c1cccc(-c2cc(N3CCOCC3)c3cnn(-c4cccc(CO)n4)c3c2)n1` is < 100 nM.
